In US12448394B2, “Heterocyclic pyrazole derivatives as type III receptor tyrosine kinase inhibitors” (DEVELOPMENT CENTER FOR BIOTECHNOLOGY, priority 2019, dated 2025) one finds IC50 and inhibition data, which are given here for eight compounds.

For test [1], the system named is MV4-11 human acute myeloid leukemia cell with FLT3-ITD mutation. The test is described as follows: MV4-11 cell proliferation assay (CellTiter 96). As to conditions: Homo sapiens, MV4-11, 72 h, MV4-11 cells, 72 hours treatment, CellTiter96; read-out: anti-proliferation activity MV4-11 (FLT3-ITD), IC50 ranking. Type of test: cell-based. Put shortly:
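Cells seeded at 6500/well in IMDM with 10% heat-inactivated FBS, left overnight at 37 °C, 5% CO2, then exposed to increasing compound concentrations for 72 h. Viability read as absorbance at 490 nm after 2–4 h with CellTiter96 AQueous One reagent.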

Test [2] deals with Molm-14 human acute myeloid leukemia cell with FLT3-ITD mutation. As to the kind of experiment: Molm-14 cell proliferation assay (CellTiter 96). Type of test: cell-based. As to conditions: Homo sapiens; Molm-14 cells, 72 hours treatment, CellTiter96; read-out: anti-proliferation activity Molm-14 (FLT3-ITD), IC50 ranking. A digest of the protocol: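 Molm-14 (FLT3-ITD AML) cells in RPMI 1640 with 10% heat-inactivated FBS were seeded at 25000 cells/well, incubated overnight at 37° C, 5% CO2, then treated with increasing compound concentrations for 72 hours. Viability was read as absorbance at 490 nm after 2˜4 hours with CellTiter96 AQueous One reagent.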

The subject of test [3] is HCC827 NSCLC cell with EGFR exon 19 deletion mutation. The test is described as follows: HCC827 cell proliferation assay (counter screen). Type of test: cell-based, human. The following applies: Homo sapiens, HCC827 cells, 72 hours treatment, CellTiter96, read-out: anti-proliferation activity HCC827 EGFR Exon19 del, IC50 ranking. Put shortly: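 HCC827 cells (EGFR exon 19 deletion) were seeded at 8000 cells/well in RPMI1640 with 10% FBS, then exposed to increasing compound concentrations for 72 h at 37 °C. Viability was read by CellTiter96 AQueous One (MTS), absorbance 490 nm after 2–4 h.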
In general terms: The purpose of a counterscreen is to sort out artefacts and off-target activity.

Test [4] has as its system phosphorylation of FLT3 and its down-stream effector STAT5. The test is described as follows: Western blotting of p-FLT3 and p-STAT5 in MV4-11 cells. As to conditions: Homo sapiens; at 30 nM treatment, 3 hours, FLT3-ITD positive MV4-11 leukemia cells; read-out: inhibition activity against phosphorylation of FLT3 and its down-stream effector STAT5. Type of test: cell-based. A digest of the protocol:
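MV4-11 cells held overnight in IMDM with 0.1% FBS, then 3 million cells treated with compound for 3 h. Whole lysates immunoblotted for p-FLT3 (Tyr-591), p-STAT5 (Tyr-694) and actin. Band intensities at 30 nM compared to DMSO control; % inhibition = (1 − relative intensity) × 100.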
On the technique in general: A western blot detects proteins with antibodies after separation by electrophoresis.

Some results are limits rather than exact numbers.

Regarding `CN(C)S(=O)(=O)c1ccc(-c2cc3c(s2)Cc2c(-c4ccc5cnn(C)c5c4)n[nH]c2-3)cc1` [Compound 50, N,N-dimethyl-4-(3-(1-methyl-1H-indazol-6-yl)-1,4-dihydrothieno [2′,3′:4,5]cyclopenta [1,2-c]pyrazol-6-yl) benzenesulfonamide], the IC50 was under 30 nM in test [1], 30 to 100 nM in test [2] and over 10000 nM in test [3]. In addition, the inhibition at 0.03 µM in test [4] is over 50%.

`C[C@@H]1CN(C(=O)c2ccc(-c3cc4c(s3)Cc3c(-c5ccc6cnn(C)c6c5)n[nH]c3-4)cc2)C[C@H](C)O1` [Compound 19, ((2S,6R)-2,6-dimethyl-morpholino)(4-(3-(1-methyl-1H-indazol-6-yl)-1,4-dihydrothieno[2′,3′:4,5]cyclopenta[1,2-c]pyrazol-6-yl)phenyl)methanone]: the IC50 is under 30 nM in test [1], under 30 nM in test [2] and over 10000 nM in test [3]. Besides, the inhibition at 0.03 µM in test [4] was over 50%.

With `Cn1ncc2ccc(-c3n[nH]c4c3Cc3sc(-c5ccc(C(=O)N6CCCC6)cc5)cc3-4)cc21` [Compound 38, (4-(3-(1-methyl-1H-indazol-6-yl)-1,4-dihydro-thieno[2′,3′:4,5]cyclopenta [1,2-c]pyrazol-6-yl)phenyl)(pyrrolidin-1-yl) methanone], the values for the IC50 in test [1], in test [2] and in test [3] were under 30 nM, 30 to 100 nM and over 10000 nM, respectively. The inhibition at 0.03 µM in test [4] was over 50%.

Regarding `Cn1ncc2ccc(-c3n[nH]c4c3Cc3sc(-c5ccc(CN6CC7(COC7)C6)cc5)cc3-4)cc21` [Compound 102, 6-(4-(3-(1-methyl-1H-indazol-6-yl)-1,4-dihydro-thieno[2′,3′:4,5]cyclopenta [1,2-c]pyrazol-6-yl)benzyl)-2-oxa-6-azaspiro [3.3]heptane], the IC50 in test [1] is 30 to 100 nM; in test [2], under 30 nM; in test [3], over 10000 nM. For the same compound, the inhibition at 0.03 µM in test [4] was over 50%.

For `Cc1cc(-c2cc3c(s2)Cc2c(-c4ccc5cnn(C)c5c4)n[nH]c2-3)ccn1` [Compound 17, 3-(1-methyl-1H-indazol-6-yl)-6-(2-methylpyridin-4-yl)-1,4-dihydrothieno [2′,3′:4,5]cyclopenta[1,2-c] pyrazole], the IC50 in test [1] was under 30 nM; in test [2], 30 to 100 nM; in test [3], over 10000 nM. In test [4], the inhibition at 0.03 µM was over 50%.

Consider `C[C@@H]1CN(Cc2ccc(-c3cc4c(s3)Cc3c(-c5ccc6cnn(C)c6c5)n[nH]c3-4)cn2)C[C@H](C)O1` [Compound 9, (2S,6R)-2,6-dimethyl-4-((5-(3-(1-methyl-lH-indazol-6-yl)-1,4-dihydro-thieno[2′,3′:4,5]cyclopenta [1,2-c]pyrazol-6-yl)pyridin-2-yl)methyl) morpholine], for which the results for the IC50 in test [1], in test [2] and in test [3] were under 30 nM, under 30 nM and over 10000 nM, respectively. Also, in test [4], the inhibition at 0.03 µM was over 50%.

Turning to `Cn1ncc2ccc(-c3n[nH]c4c3Cc3sc(-c5ccc(CCN6CCOCC6)cc5)cc3-4)cc21` [Compound 22, 4-(4-(3-(1-methyl-1H-indazol-6-yl)-1,4-dihydro-thieno[2′,3′:4,5]cyclopenta [1,2-c]pyrazol-6-yl)phenethyl)morpholine], the IC50 in test [1] is under 30 nM; in test [2] it was 30 to 100 nM; in test [3] it was over 10000 nM. The inhibition at 0.03 µM in test [4] was over 50%.

For the compound `Cn1ncc2ccc(-c3n[nH]c4c3Cc3sc(C5=CCN(C(=O)N6CCOCC6)CC5)cc3-4)cc21` [Compound 57, (4-(3-(1-methyl-1H-indazol-6-yl)-1,4-dihydro-thieno[2′,3′:4,5]cyclopenta [1,2-c]pyrazol-6-yl)-3,6-dihydropyridin-1(2H)-yl) (morpholino)methanone], the values for the IC50 in test [1], in test [2] and in test [3] were under 30 nM, under 30 nM and over 10000 nM, respectively. In test [4], the inhibition at 0.03 µM was over 50%.

As a reminder, the inhibition is the relative decrease from the control value, in per cent.
